Experimental data as given in US12343326B2, “Psychoactive medicines and their use for treating psychiatric and neurological conditions and disorders” (Transcend Therapeutics, Inc., priority 2021, dated 2025).
Marks after values point to notes of the source that are not given here.

How the values were obtained:
[1] = tested on: patients with PTSD or MDD; test: Methylone case series, Cohort 2: CGI-S/CGI-I efficacy and safety; format: in vivo, human
Method: CGI-S scale was also evaluated in a subset of patients from Cohort 2 post-treatment. Cohort 2 was evaluated for any observed or reported safety events following a single dosing session. Clinical Global Improvement Scale
Clinical Global Impressions (CGI) scale includes 2 components: CGI-S (“severity”) and CGI-I (“improvement”).
Cohort 2 is composed of 28 patients with PTSD or MDD treated in an outpatient setting.
Only sessions that included methylone dosing were counted as dosing sessions.
Single sessions occurred for 8 of the 28 cases with no booster in two of these cases. In the remainder of the cases, multiple sessions occurred, and booster doses were used in all or some of the remaining patients ([…]) with multiple booster doses used in some or all of the sessions in 15 patients.

168 GPCRs = test: β-arrestin based GPCR screen (PathHunter / GPCRmax), agonist mode; format: cell-based
Method: For agonist determination, cells were incubated with sample to induce response. […] Vehicle concentration was 1%.

Male Sprague Dawley rats = test: Forced Swim Test (FST); format: in vivo, rat
From the text: The Forced Swim Test (FST) is a classic, and the most used preclinical behavioral assay to screen compounds with antidepressant-like activity and has high predictive and face validity (Porsolt et al. (1977) Nature 266:730; Borsini and Meli (1988) Psychopharmacology 94:147). The premise of the FST is that when rats are placed into a cylinder filled with water, they will initially try to escape, but over time will become immobile. This increased immobility reflects behavioral despair, modeling a depressive-like state.
Forced Swim Test (FST): In the FST trial, rats were placed in a circular plexiglass container filled with water, with no means of escape. Water temperature was maintained at 22-25° C. and changed for every animal. After an acclimation period, rats were timed for inactivity (failure to struggle), activity, swim time and climbing time. Day 1 consisted of a 15 min acclimation trial, and Day 2 (24 h later) consisted of the 5 min test. A time sampling procedure was employed where animals were observed every 5 sec and scored for immobility, swimming, or climbing. Fluoxetine (10 mg/kg, IP, Sigma Aldrich) or 0.9% sterile saline vehicle (vehicle 3× group) were administered 23.5, 5, and 1 h before testing in the FST. […] The experimenter was blinded to treatment.
Forced Swim Test: In the FST trial, rats were placed in a circular plexiglass container filled with water, with no means of escape. Water temperature was maintained at 22-25° C. and changed for every animal. After an acclimation period, rats were timed for inactivity (failure to struggle), activity, swim time and climbing time. Day 1 consisted of a 15 min acclimation trial, and Day 2 (24 h later) consisted of the 5 min test. A time sampling procedure was employed where animals were observed every 5 sec and scored for immobility, swimming, or climbing. Fluoxetine (10 mg/kg, IP, Sigma Aldrich) or 0.9% sterile saline vehicle (vehicle 3× group) were administered 23.5, 5, and 1 h before testing in the FST. 2C-B (2.5, 10, or 20 mg/kg, IP, Cayman Chemical) or 0.9% saline vehicle (vehicle 1× group) were administered 30 min prior to FST testing. The experimenter was blinded to treatment.
Drug Treatment: Fluoxetine (10 mg/kg, IP, Sigma Aldrich) or 0.9% sterile saline vehicle were administered 23.5, 5, and 1 h before testing in the FST. […] Control animals received fluoxetine alone, methylone alone, or saline vehicle.
Forced Swim Test: In the FST trial, rats were placed in a circular plexiglass container filled with water, with no means of escape. Water temperature was maintained at 22-25° C. and changed for every animal. After an acclimation period, rats were timed for inactivity (failure to struggle), activity, swim time and climbing time. The experimenter and scorer were blind to treatment group. Day 1 consisted of a 15 min acclimation trial, and Day 2 (24 h later) consisted of the 5 min test. A time sampling procedure was employed where animals were observed every 5 sec and scored for immobility, swimming, or climbing.
Control animals received saline vehicle. The dosing schedule and experimental design are found in FIG. 12A.
The FST was performed and scored by an experimenter blind to treatment group according to standard protocols and based on a “modified FST” procedure (Slattery and Cryan (2012) Nat Protoc, 7:1009). Briefly, rats were placed in a circular plexiglass container (29.2 cm diameter, 49.5 cm height) filled with water to a depth of 30 cm so rats could not support themselves by touching the bottom of the tank. Water was maintained at 22-25° C. and was changed for every animal. Day 1 (Training) consisted of a 15 min acclimation trial, and Day 2 (Testing, 24 h later) consisted of the 5 min test. […]

mice = test: Mouse fear extinction paradigm (PTSD model); format: in vivo; conditions: methylone 30 mg/kg IP; day 3
From the text: Effective PTSD treatments facilitate the disassociation between a traumatic memory and the patient's fear response, making cues for the traumatic memory evoke less of a fear response. This is modeled in the mouse fear extinction paradigm (see FIG. 9A) which takes place over 3 days. On day 1 (fear conditioning), mice are trained to acquire a “traumatic memory,” namely associating the conditioned stimulus (CS, tone) to the unconditioned stimulus (US, foot shock). On day 2 (extinction training), they are trained to forget the traumatic memory association by presenting the CS 6 times (with no US) in a novel environment. On day 3 (extinction recall), the mice are “asked” if that tone (CS) still elicits a fearful response, as measured by the time spent freezing when the tone is presented. Less time freezing means better extinction recall. Drugs that improve extinction recall reduce freezing time on day 3, and, therefore, show potential as a PTSD treatment.

[2] = Cohort 2, N = 28, highest observed

Question: For `CNC(C)C(=O)c1ccc2c(c1)OCO2` (stereo not drawn) [methylone, 3,4-methylenedioxy-N-methylcathinone], which “Magnitude of Improvement: Number of cases with CGI-I 1” value [1, 2] is on record?
Answer: Its value is 11* cases.

Question: What about the “Magnitude of Improvement: Number of cases with CGI-I 2” value [1, 2] of the same molecule?
Answer: The value was 13 cases.

Question: What about the “Magnitude of Improvement: Number of cases with CGI-I 3” value [1, 2] of the same molecule?
Answer: Its value is 4 cases.

Question: What about the “Magnitude of Improvement: Number of cases with CGI-I 4” value [1, 2] of the same molecule?
Answer: Its value is 0 cases.

Question: What about the “Magnitude of Improvement: Number of cases with CGI-I 5” value [1, 2] of the same molecule?
Answer: Its value is 0 cases.

Question: And the “Magnitude of Improvement: Number of cases with CGI-I 6” value [1, 2]?
Answer: The value was 0 cases.

Question: And the “Magnitude of Improvement: Number of cases with CGI-I 7” value [1, 2]?
Answer: Its value is 0 cases.

Question: What about the “number of patients with adverse events following methylone dosing” value ([1]; Cohort 2, N = 28, all ≥65 years of age) of the same molecule?
Answer: The value was 3 patients.

Question: What about the “agonist activity at any of the 168 GPCRs (criterion >30% activity)” value (168 GPCRs; 1 and 10 micromolar) of the same molecule?
Answer: Its value is “did not meet criteria for agonist or antagonist activity”.

Question: What about the “% Activity” value (168 GPCRs; DRD2S, Agonist mode, 10 uM) of the same molecule?
Answer: Its value is 0.6%.

Question: What about the “% Activity” value (168 GPCRs; DRD2S, Agonist, 1 uM) of the same molecule?
Answer: The value was 0%.

Question: And the “% Activity” value (168 GPCRs; NPSR1b, Agonist mode, 10 uM)?
Answer: The value was 4.8%.

Question: What about the “% Activity” value (168 GPCRs; NPSR1b, Agonist, 1 uM) of the same molecule?
Answer: The value was −1.3%.

Question: And the “climbing behavior (FST)” value (Male Sprague Dawley rats; Example 8)?
Answer: The value was “significantly increased climbing behavior”.

Question: What about the “effectiveness in the FST” value (Male Sprague Dawley rats; doses of 10 mg/kg or more) of the same molecule?
Answer: Its value is “maximally effective”.

Question: And the “antidepressant-like effect (FST), multiple lower doses” value (Male Sprague Dawley rats; four […] IP doses 20.5, 8.5, 4.5 and 0.5 hours before testing)?
Answer: Its value is “significant antidepressant-like effects”.

Question: What about the “climbing (FST)” value (Male Sprague Dawley rats; methylone IP dose range, 30 min before testing) of the same molecule?
Answer: Its value is “only increased at the lowest dose”.

Question: What about the “swimming (FST)” value (Male Sprague Dawley rats; mid and high doses of methylone IP, 30 min before testing) of the same molecule?
Answer: Its value is “significantly increased swimming”.

Question: And the “antidepressant-like effect (FST) vs. vehicle” value (Male Sprague Dawley rats; single dose 15 mg/kg PO, 2 hours before testing)?
Answer: The value was “significant antidepressant-like effect”.

Question: And the “immobility (FST) vs. saline vehicle” value (Male Sprague Dawley rats; single dose 5, 10, 15, 20 and 30 mg/kg IP, 30 min before testing)?
Answer: Its value is “significantly reduced immobility”.

Question: And the “locomotion during testing session” value (mice)?
Answer: Its value is “no differences between groups in locomotion”.
